Laboratory results as given in the NIST ThermoML archive (doi:10.1007/s10765-008-0535-5).

Assay: molar heat capacity at constant volume; wn = mass fraction of the nth substance listed
Conditions: Liquid, Vacuum adiabatic calorimetry, w2 = 0.5111

FC(F)C(F)(F)F [pentafluoroethane] + FCF
Conditions	molar heat capacity at constant volume [J/K/mol]
268.15 K, 3423 kPa	62.96
269.15 K, 4259 kPa	64.11
270.15 K, 5065 kPa	63.82
270.15 K, 5095 kPa	63.25
270.15 K, 5157 kPa	63.82
271.15 K, 5903 kPa	64.9
271.15 K, 5931 kPa	64.04
271.15 K, 5992 kPa	62.96
272.15 K, 6740 kPa	64.18
272.15 K, 6767 kPa	64.61
272.15 K, 6828 kPa	63.25
273.15 K, 7576 kPa	64.54
273.15 K, 7602 kPa	63.82
273.15 K, 7662 kPa	64.04
274.15 K, 8411 kPa	65.12
274.15 K, 8437 kPa	65.19
274.15 K, 8496 kPa	63.82
275.15 K, 9245 kPa	64.9
275.15 K, 9272 kPa	64.9
275.15 K, 9328 kPa	63.75
276.15 K, 10082 kPa	65.77
276.15 K, 10107 kPa	64.83
276.15 K, 10161 kPa	64.25
277.15 K, 10917 kPa	65.84
277.15 K, 10942 kPa	65.62
277.15 K, 10993 kPa	65.05
278.15 K, 11753 kPa	66.05
278.15 K, 11776 kPa	65.55
278.15 K, 11824 kPa	64.4
279.15 K, 12587 kPa	65.69
279.15 K, 12611 kPa	66.12
279.15 K, 12657 kPa	65.33
280.15 K, 13423 kPa	66.92
280.15 K, 13444 kPa	65.12
280.15 K, 13488 kPa	64.9
281.15 K, 14258 kPa	65.69
281.15 K, 14277 kPa	66.63
281.15 K, 14319 kPa	65.69
282.15 K, 15091 kPa	66.92
282.15 K, 15110 kPa	66.27
282.15 K, 15148 kPa	65.55
283.15 K, 15926 kPa	66.63
283.15 K, 15943 kPa	66.05
283.15 K, 15978 kPa	64.76
284.15 K, 16759 kPa	66.56
284.15 K, 16775 kPa	66.34
284.15 K, 16808 kPa	66.05
285.15 K, 17592 kPa	67.2
285.15 K, 17606 kPa	67.06
285.15 K, 17637 kPa	65.77
286.15 K, 18423 kPa	66.77
286.15 K, 18437 kPa	66.7
286.15 K, 18467 kPa	66.41
287.15 K, 19253 kPa	66.2
287.15 K, 19268 kPa	66.7
287.15 K, 19297 kPa	65.19
288.15 K, 20083 kPa	67.35
288.15 K, 20097 kPa	67.28
288.15 K, 20124 kPa	66.05
289.15 K, 20914 kPa	67.35
289.15 K, 20926 kPa	66.7
289.15 K, 20951 kPa	66.27
290.15 K, 21743 kPa	67.49
290.15 K, 21755 kPa	67.28
290.15 K, 21778 kPa	66.12
291.15 K, 22571 kPa	67.28
291.15 K, 22583 kPa	66.7
291.15 K, 22607 kPa	66.05
292.15 K, 23400 kPa	67.35
292.15 K, 23410 kPa	67.35
292.15 K, 23433 kPa	66.63
293.15 K, 24226 kPa	67.13
293.15 K, 24236 kPa	67.06
293.15 K, 24257 kPa	66.2
294.15 K, 25053 kPa	67.42
294.15 K, 25062 kPa	67.42
294.15 K, 25082 kPa	67.28
295.15 K, 25878 kPa	66.84
295.15 K, 25887 kPa	67.13
295.15 K, 25903 kPa	65.05
296.15 K, 5585 kPa	69.44
296.15 K, 5620 kPa	68.57
296.15 K, 5667 kPa	65.84
296.15 K, 26704 kPa	67.92
296.15 K, 26711 kPa	66.99
296.15 K, 26725 kPa	66.48
297.15 K, 6213 kPa	68.72
297.15 K, 6246 kPa	68.86
297.15 K, 6292 kPa	68.14
297.15 K, 27528 kPa	67.28
297.15 K, 27534 kPa	66.63
297.15 K, 27546 kPa	66.2
298.15 K, 6841 kPa	70.08
298.15 K, 6872 kPa	68.28
298.15 K, 6917 kPa	67.78
298.15 K, 28352 kPa	66.99
298.15 K, 28357 kPa	66.84
298.15 K, 28366 kPa	65.48
299.15 K, 7469 kPa	69.08
299.15 K, 7499 kPa	69.29
299.15 K, 7541 kPa	67.28
299.15 K, 29176 kPa	67.56
299.15 K, 29179 kPa	67.49
299.15 K, 29186 kPa	66.05
300.15 K, 8097 kPa	69.15
300.15 K, 8124 kPa	67.85
300.15 K, 8166 kPa	68.07
300.15 K, 29998 kPa	66.56
300.15 K, 29999 kPa	65.55
300.15 K, 30003 kPa	66.7
301.15 K, 8725 kPa	68.57
301.15 K, 8750 kPa	68.07
301.15 K, 8791 kPa	67.92
302.15 K, 9353 kPa	68.14
302.15 K, 9377 kPa	68.86
302.15 K, 9417 kPa	66.99
303.15 K, 9980 kPa	68.57
303.15 K, 10003 kPa	68.28
303.15 K, 10042 kPa	67.2
304.15 K, 10607 kPa	68.72
304.15 K, 10629 kPa	66.92
304.15 K, 10667 kPa	67.49
305.15 K, 11234 kPa	66.92
305.15 K, 11256 kPa	67.42
305.15 K, 11292 kPa	66.05
306.15 K, 11861 kPa	68.14
306.15 K, 11881 kPa	66.99
306.15 K, 11917 kPa	66.2
307.15 K, 12487 kPa	66.77
307.15 K, 12507 kPa	67.28
307.15 K, 12541 kPa	66.92
308.15 K, 13114 kPa	67.06
308.15 K, 13133 kPa	67.35
308.15 K, 13165 kPa	65.84
309.15 K, 13740 kPa	66.92
309.15 K, 13758 kPa	67.13
309.15 K, 13790 kPa	66.12
310.15 K, 14367 kPa	67.13
310.15 K, 14384 kPa	66.05
310.15 K, 14414 kPa	65.91
311.15 K, 14992 kPa	66.48
311.15 K, 15009 kPa	66.2
311.15 K, 15038 kPa	65.84
312.15 K, 15618 kPa	64.9
312.15 K, 15634 kPa	67.13
312.15 K, 15662 kPa	65.26
313.15 K, 16243 kPa	66.7
313.15 K, 16259 kPa	66.2
313.15 K, 16286 kPa	65.26
314.15 K, 16869 kPa	66.2
314.15 K, 16883 kPa	65.98
314.15 K, 16910 kPa	65.26
315.15 K, 17493 kPa	65.77
315.15 K, 17507 kPa	65.84
315.15 K, 17534 kPa	64.54
316.15 K, 18118 kPa	65.77
316.15 K, 18131 kPa	65.12
316.15 K, 18158 kPa	64.9
317.15 K, 18743 kPa	65.48
317.15 K, 18755 kPa	64.33
317.15 K, 18781 kPa	64.47
318.15 K, 19367 kPa	64.97
318.15 K, 19379 kPa	64.9
318.15 K, 19404 kPa	64.25
319.15 K, 19990 kPa	65.05
319.15 K, 20003 kPa	65.12
319.15 K, 20027 kPa	64.61
320.15 K, 20613 kPa	63.75
320.15 K, 20627 kPa	65.77
320.15 K, 20649 kPa	64.33
321.15 K, 21236 kPa	64.69
321.15 K, 21250 kPa	64.69
321.15 K, 21272 kPa	63.61
322.15 K, 21858 kPa	64.69
322.15 K, 21873 kPa	63.9
322.15 K, 21894 kPa	64.04
323.15 K, 22480 kPa	63.9
323.15 K, 22495 kPa	63.9
323.15 K, 22516 kPa	63.61
324.15 K, 23103 kPa	64.33
324.15 K, 23117 kPa	64.97
324.15 K, 23137 kPa	62.6
325.15 K, 23725 kPa	64.25
325.15 K, 23738 kPa	63.39
325.15 K, 23758 kPa	63.1
326.15 K, 24347 kPa	64.33
326.15 K, 24361 kPa	64.9
326.15 K, 24379 kPa	62.74
327.15 K, 24970 kPa	63.75
327.15 K, 24981 kPa	63.1
327.15 K, 25000 kPa	63.68
328.15 K, 25590 kPa	62.96
328.15 K, 25601 kPa	63.1
328.15 K, 25620 kPa	62.17
